In BindingDB's records for doi:10.1016/j.bmc.2004.10.008 (Mitsubishi Pharma, 2005):

Legend:
Experiment in all cases: [32P] S1P Binding Assay
Details in all cases: pH 7.5; 4 °C
[1] = molecular target: T1, Sphingosine 1-phosphate receptor 4 (Homo sapiens, UniProt O95977)
T1 sequence (O95977 whole entry): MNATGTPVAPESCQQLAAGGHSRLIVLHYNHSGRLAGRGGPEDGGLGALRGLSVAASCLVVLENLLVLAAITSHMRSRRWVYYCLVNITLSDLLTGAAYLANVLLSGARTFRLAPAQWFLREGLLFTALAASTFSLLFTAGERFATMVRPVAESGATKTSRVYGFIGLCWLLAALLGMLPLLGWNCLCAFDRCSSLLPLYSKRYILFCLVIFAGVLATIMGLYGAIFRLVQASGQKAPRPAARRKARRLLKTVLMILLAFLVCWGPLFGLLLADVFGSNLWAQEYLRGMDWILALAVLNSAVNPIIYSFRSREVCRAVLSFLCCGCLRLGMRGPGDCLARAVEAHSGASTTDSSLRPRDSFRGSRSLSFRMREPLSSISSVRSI

[2] = molecular target: Sphingosine 1-phosphate receptor 3 (Homo sapiens, UniProt Q99500)
[3] = molecular target: Sphingosine 1-phosphate receptor 1 (Homo sapiens, UniProt P21453)
Sphingosine 1-phosphate receptor 1, sequence (P21453 whole entry): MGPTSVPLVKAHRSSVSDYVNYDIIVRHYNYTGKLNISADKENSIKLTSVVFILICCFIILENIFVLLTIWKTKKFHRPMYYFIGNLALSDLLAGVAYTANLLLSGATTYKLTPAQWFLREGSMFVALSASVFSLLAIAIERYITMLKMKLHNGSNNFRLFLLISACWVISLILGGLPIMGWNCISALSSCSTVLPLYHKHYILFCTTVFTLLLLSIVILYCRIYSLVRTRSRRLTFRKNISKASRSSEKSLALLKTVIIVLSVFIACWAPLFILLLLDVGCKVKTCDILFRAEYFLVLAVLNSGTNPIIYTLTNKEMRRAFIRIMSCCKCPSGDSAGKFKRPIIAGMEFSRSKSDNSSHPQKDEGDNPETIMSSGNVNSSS

Sphingosine 1-phosphate receptor 3, sequence (Q99500 whole entry): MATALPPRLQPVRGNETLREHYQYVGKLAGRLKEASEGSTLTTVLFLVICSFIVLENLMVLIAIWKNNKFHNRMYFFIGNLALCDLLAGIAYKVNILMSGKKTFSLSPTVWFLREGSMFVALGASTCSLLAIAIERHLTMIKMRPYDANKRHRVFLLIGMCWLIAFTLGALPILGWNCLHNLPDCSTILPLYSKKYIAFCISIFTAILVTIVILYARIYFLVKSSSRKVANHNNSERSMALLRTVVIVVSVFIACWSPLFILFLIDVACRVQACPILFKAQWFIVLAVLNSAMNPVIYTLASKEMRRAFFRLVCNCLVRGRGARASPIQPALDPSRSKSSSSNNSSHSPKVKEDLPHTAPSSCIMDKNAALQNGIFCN

Ki [1] [nM]	Compound	Ki [2] [nM]	Ki [3] [nM]
105	CCCCCCCCc1ccc(CC[C@@](N)(CO)COP(=O)(O)O)cc1		
23	CCCCCCCCc1ccc(CC[C@](N)(CO)COP(=O)(O)O)cc1		
37	CCCCCCCCc1ccc(CCC(N)(CO)COP(=O)(O)O)cc1 (stereo unspecified) [{2-amino-3-hydroxy-2-[2-(4-octylphenyl)ethyl]propoxy}phosphonic acid]		

Compound	Ki [1] [nM]	Ki [2] [nM]	Ki [3] [nM]
CCCCCCCCCCCCC/C=C\C(O)C(N)COP(=O)(O)O (stereo unspecified) [{[(4Z)-2-amino-3-hydroxyoctadec-4-en-1-yl]oxy}phosphonic acid]	2.7	5.4	1.2
